Measured values from PubChem BioAssay AID2060883 (Molecular Pharmacology Branch, DTP, NCI, 2025).

System: 843782-103-R-J1-PDC complex spheroid viability
Experiment: Anticancer human tumor 843782-103-R-J1-PDC patient-derived lung adenocarcinoma cell line growth inhibition [RAS]
Details: for IC50: curve of first compound; for viability, T/C: stronger effect = lower value
Summary of the method: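 Multi-cell-type spheroids: tumor cells plus HUVEC endothelial cells and mesenchymal stem cells. RAS-pathway inhibitors were combined with targeted agents, each dosed in half-log steps down from clinical Cmax, or from 10 microM when Cmax was unknown.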

[1] = second compound 0.000949 µM, first compound 0.00316 µM
[2] = second compound 0.000949 µM, first compound 0.01 µM
[3] = second compound 0.000949 µM, first compound 0.0316 µM
[4] = second compound 0.000949 µM, first compound 0.1 µM
[5] = second compound 0.000949 µM, first compound 0.316 µM
[6] = second compound 0.000949 µM, first compound 1 µM
[7] = second compound 0.003 µM, first compound 0.00316 µM
[8] = second compound 0.003 µM, first compound 0.01 µM
[9] = second compound 0.003 µM, first compound 0.0316 µM
[10] = second compound 0.003 µM, first compound 0.1 µM
[11] = second compound 0.003 µM, first compound 0.316 µM
[12] = second compound 0.003 µM, first compound 1 µM
[13] = second compound 0.00949 µM, first compound 0.00316 µM
[14] = second compound 0.00949 µM, first compound 0.01 µM
[15] = second compound 0.00949 µM, first compound 0.0316 µM
[16] = second compound 0.00949 µM, first compound 0.1 µM
[17] = second compound 0.00949 µM, first compound 0.316 µM
[18] = second compound 0.00949 µM, first compound 1 µM
[19] = second compound 0.03 µM, first compound 0.00316 µM
[20] = second compound 0.03 µM, first compound 0.01 µM
[21] = second compound 0.03 µM, first compound 0.0316 µM
[22] = second compound 0.03 µM, first compound 0.1 µM
[23] = second compound 0.03 µM, first compound 0.316 µM
[24] = second compound 0.03 µM, first compound 1 µM
[25] = second compound 0.0949 µM, first compound 0.00316 µM
[26] = second compound 0.0949 µM, first compound 0.01 µM
[27] = second compound 0.0949 µM, first compound 0.0316 µM
[28] = second compound 0.0949 µM, first compound 0.1 µM
[29] = second compound 0.0949 µM, first compound 0.316 µM
[30] = second compound 0.0949 µM, first compound 1 µM
[31] = second compound 0.3 µM, first compound 0.00316 µM
[32] = second compound 0.3 µM, first compound 0.01 µM
[33] = second compound 0.3 µM, first compound 0.0316 µM
[34] = second compound 0.3 µM, first compound 0.1 µM
[35] = second compound 0.3 µM, first compound 0.316 µM
[36] = second compound 0.3 µM, first compound 1 µM
[37] = second compound 0.000949 µM, first compound 3.16 µM
[38] = second compound 0.000949 µM, first compound 10 µM
[39] = second compound 0.003 µM, first compound 3.16 µM
[40] = second compound 0.003 µM, first compound 10 µM
[41] = second compound 0.00949 µM, first compound 3.16 µM
[42] = second compound 0.00949 µM, first compound 10 µM
[43] = second compound 0.03 µM, first compound 3.16 µM
[44] = second compound 0.03 µM, first compound 10 µM
[45] = second compound 0.0949 µM, first compound 3.16 µM
[46] = second compound 0.0949 µM, first compound 10 µM
[47] = second compound 0.3 µM, first compound 3.16 µM
[48] = second compound 0.3 µM, first compound 10 µM
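Also: viability read after seven days of compound exposure.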

`Nc1ccn(C2OC(CO)C(O)C2(F)F)c(=O)n1` (stereo not drawn) + CCn1c(-c2cccnc2C(C)OC)c2c3cc(ccc31)N1CCOC(CC(NC(=O)C(C(C)C)N(C)C(=O)C3(F)CCN(C(=O)C#CC(C)(C)N(C)C)CC3)C(=O)N3CCCC(N3)C(=O)OCC(C)(C)C2)C1 was tested, and the IC50 (second compound 0.000949 µM) was 11 nM, the IC50 (second compound 0.003 µM) was 16.6 nM and the IC50 (second compound 0.00949 µM) was 13.1 nM. The IC50 (second compound 0.03 µM) was 16.7 nM, the IC50 (second compound 0.0949 µM) was 16.9 nM and the IC50 (second compound 0.3 µM) was 14.3 nM. The viability, T/C [1] was 70.1%, the viability, T/C [2] was 52% and the viability, T/C [3] was 22.1%. It also gave a viability, T/C [4] of 2.91%, a viability, T/C [5] of 1.53% and a viability, T/C [6] of 1.52%. It also gave a viability, T/C [7] of 77.5%, a viability, T/C [8] of 72% and a viability, T/C [9] of 21.7%. For the same compound, the viability, T/C [10] was 2.04%, the viability, T/C [11] was 1.96% and the viability, T/C [12] was 2.38%. It also gave a viability, T/C [13] of 73.3%, a viability, T/C [14] of 59.4% and a viability, T/C [15] of 18.9%. The viability, T/C [16] was 2.07%, the viability, T/C [17] was 1.82% and the viability, T/C [18] was 1.89%. It also gave a viability, T/C [19] of 72.4%, a viability, T/C [20] of 74.5% and a viability, T/C [21] of 21.1%. The viability, T/C [22] was 2.07%, the viability, T/C [23] was 1.99% and the viability, T/C [24] was 1.85%. For the same compound, the viability, T/C [25] was 85.6%, the viability, T/C [26] was 69.9% and the viability, T/C [27] was 26.4%. The viability, T/C [28] was 2.27%, the viability, T/C [29] was 1.51% and the viability, T/C [30] was 1.37%. For the same compound, the viability, T/C [31] was 70.4%, the viability, T/C [32] was 62.7% and the viability, T/C [33] was 21.8%. The viability, T/C [34] was 2.7%, the viability, T/C [35] was 1.81% and the viability, T/C [36] was 1.46%.

`C=CC(=O)Nc1cc(Nc2nccc(-c3cn(C)c4ccccc34)n2)c(OC)cc1N(C)CCN(C)C` + CCn1c(-c2cccnc2C(C)OC)c2c3cc(ccc31)N1CCOC(CC(NC(=O)C(C(C)C)N(C)C(=O)C3(F)CCN(C(=O)C#CC(C)(C)N(C)C)CC3)C(=O)N3CCCC(N3)C(=O)OCC(C)(C)C2)C1 gave an IC50 (second compound 0.000949 µM) of 78.2 nM, an IC50 (second compound 0.003 µM) of 194 nM and an IC50 (second compound 0.00949 µM) of 76.4 nM. For the same compound, the IC50 (second compound 0.03 µM) was 167 nM, the IC50 (second compound 0.0949 µM) was 92.2 nM and the IC50 (second compound 0.3 µM) was 110 nM. It also gave a viability, T/C [1] of 75.9%, a viability, T/C [2] of 60.9% and a viability, T/C [3] of 68.2%. For the same compound, the viability, T/C [4] was 45.1%, the viability, T/C [5] was 33.5% and the viability, T/C [6] was 31.5%. The viability, T/C [7] was 68.7%, the viability, T/C [8] was 57.3% and the viability, T/C [9] was 66.3%. For the same compound, the viability, T/C [10] was 64.3%, the viability, T/C [11] was 39.6% and the viability, T/C [12] was 30.9%. For the same compound, the viability, T/C [13] was 67.5%, the viability, T/C [14] was 69.1% and the viability, T/C [15] was 73%. For the same compound, the viability, T/C [16] was 43.9%, the viability, T/C [17] was 40.8% and the viability, T/C [18] was 26.8%. For the same compound, the viability, T/C [19] was 65.9%, the viability, T/C [20] was 73.6% and the viability, T/C [21] was 58.9%. It also gave a viability, T/C [22] of 55.3%, a viability, T/C [23] of 44.4% and a viability, T/C [24] of 31.9%. The viability, T/C [25] was 73.4%, the viability, T/C [26] was 62.6% and the viability, T/C [27] was 60.8%. It also gave a viability, T/C [28] of 46.9%, a viability, T/C [29] of 43% and a viability, T/C [30] of 26.4%. The viability, T/C [31] was 68%, the viability, T/C [32] was 66.2% and the viability, T/C [33] was 63.9%. The viability, T/C [34] was 51.6%, the viability, T/C [35] was 35.2% and the viability, T/C [36] was 31.5%.

Work on `CC1(O)CCCC1n1c(=O)c(C(F)F)cc2cnc(NC3CCN(S(C)(=O)=O)CC3)nc21` (stereo not drawn) + CCn1c(-c2cc(N3CCN(C)CC3)cnc2C(C)OC)c2c3cc(ccc31)-c1csc(n1)CC(NC(=O)C1CC1C)C(=O)N1CCCC(N1)C(=O)OCC(C)(C)C2 yielded an IC50 (second compound 0.000949 µM) of 123 nM, an IC50 (second compound 0.003 µM) of 52.7 nM and an IC50 (second compound 0.00949 µM) of under 31.6 nM. It also gave an IC50 (second compound 0.03 µM) of under 31.6 nM, an IC50 (second compound 0.0949 µM) of under 31.6 nM and an IC50 (second compound 0.3 µM) of under 31.6 nM. It also gave a viability, T/C [3] of 68.6%, a viability, T/C [4] of 57% and a viability, T/C [5] of 18.5%. For the same compound, the viability, T/C [6] was 14.9%, the viability, T/C [37] was 11.1% and the viability, T/C [38] was 2.8%. The viability, T/C [9] was 58.1%, the viability, T/C [10] was 42.5% and the viability, T/C [11] was 16.6%. For the same compound, the viability, T/C [12] was 17.5%, the viability, T/C [39] was 13.2% and the viability, T/C [40] was 2.6%. The viability, T/C [15] was 37.4%, the viability, T/C [16] was 24.2% and the viability, T/C [17] was 14.6%. The viability, T/C [18] was 15.8%, the viability, T/C [41] was 13.1% and the viability, T/C [42] was 3.41%. It also gave a viability, T/C [21] of 18.4%, a viability, T/C [22] of 15.7% and a viability, T/C [23] of 13%. The viability, T/C [24] was 12.7%, the viability, T/C [43] was 13.5% and the viability, T/C [44] was 2.9%. It also gave a viability, T/C [27] of 15.8%, a viability, T/C [28] of 13.8% and a viability, T/C [29] of 10.8%. For the same compound, the viability, T/C [30] was 11.4%, the viability, T/C [45] was 12% and the viability, T/C [46] was 3.5%. The viability, T/C [33] was 14.1%, the viability, T/C [34] was 13.6% and the viability, T/C [35] was 9.45%. The viability, T/C [36] was 10%, the viability, T/C [47] was 9.83% and the viability, T/C [48] was 3.16%.

Work on `CC(C)NCC(C(=O)N1CCN(c2ncnc3c2C(C)CC3O)CC1)c1ccc(Cl)cc1` (stereo not drawn) + CCn1c(-c2cccnc2C(C)OC)c2c3cc(ccc31)N1CCOC(CC(NC(=O)C(C(C)C)N(C)C(=O)C3(F)CCN(C(=O)C#CC(C)(C)N(C)C)CC3)C(=O)N3CCCC(N3)C(=O)OCC(C)(C)C2)C1 yielded an IC50 (second compound 0.000949 µM) of 287 nM, an IC50 (second compound 0.003 µM) of 325 nM and an IC50 (second compound 0.00949 µM) of 402 nM. It also gave an IC50 (second compound 0.03 µM) of 309 nM, an IC50 (second compound 0.0949 µM) of 403 nM and an IC50 (second compound 0.3 µM) of 174 nM. For the same compound, the viability, T/C [3] was 74.5%, the viability, T/C [4] was 68.8% and the viability, T/C [5] was 48.5%. The viability, T/C [6] was 19.6%, the viability, T/C [37] was 10.8% and the viability, T/C [38] was 4.86%. The viability, T/C [9] was 74.1%, the viability, T/C [10] was 71.3% and the viability, T/C [11] was 47.5%. The viability, T/C [12] was 30%, the viability, T/C [39] was 12.4% and the viability, T/C [40] was 7.3%. It also gave a viability, T/C [15] of 68.2%, a viability, T/C [16] of 65.3% and a viability, T/C [17] of 55.9%. For the same compound, the viability, T/C [18] was 30%, the viability, T/C [41] was 13.9% and the viability, T/C [42] was 4.79%. It also gave a viability, T/C [21] of 72.9%, a viability, T/C [22] of 66% and a viability, T/C [23] of 50.5%. For the same compound, the viability, T/C [24] was 24.8%, the viability, T/C [43] was 13.8% and the viability, T/C [44] was 6.84%. It also gave a viability, T/C [27] of 70.8%, a viability, T/C [28] of 66.3% and a viability, T/C [29] of 56.9%. The viability, T/C [30] was 27.1%, the viability, T/C [45] was 11.5% and the viability, T/C [46] was 5.05%. It also gave a viability, T/C [33] of 63.4%, a viability, T/C [34] of 60% and a viability, T/C [35] of 39.8%. It also gave a viability, T/C [36] of 23.2%, a viability, T/C [47] of 11.3% and a viability, T/C [48] of 5.97%.
